{"source": "patent US5439884A", "about": "“Method of controlling fertilization using bombesin or its agonist” (Oregon Regional Primate Research Center, priority 1992, dated 1995)", "key": {"sperm [1]": {"test_system": "sperm", "conditions": "high doses, 1 μg/ml; cited from earlier work"}, "new GRP receptor": {"test_system": "new GRP receptor", "test": "response of new GRP receptor in transfected cells and Xenopus oocytes", "format": "cell-based, rat", "description": "A new GRP receptor, which is expressed in very high levels in rat sperm, has recently been cloned. cDNA encoding this receptor was used to determine if this new GRP receptor is expressed in primate sperm."}, "sperm [2]": {"test_system": "sperm", "test": "acrosome reaction, analogs alone or in the presence of GRP (sperm species not stated)", "format": "cell-based", "conditions": "for % Acrosome Reacted, Analog + GRP: analog 50 nM + GRP 2 nM; for % Acrosome Reacted, Analog: analog alone, final concentration 50 nM, blank control 6.000 ± .707", "procedure": "(§1) The acrosome reaction, which is necessary for sperm to fertilize the egg, was induced by the following methods.\n(§2) For monkeys, sperm was collected, washed twice in balanced salts, resuspended in lactate/bicarbonate and dibutyryl cAMP, and then incubated for 60 minutes. […] See Wolf, D. P. et al. Mol. Reprod. Dev. 27:261-280 (1990); Lanzendorf, S. E. et al. Mol. Reprod. Dev. 25:61-66 (1990); and Wolf D. P. et al. Biol. Reprod. 41:335-346 (1989). All of these three publications are hereby incorporated by reference.\n(§3) To measure the effects of bombesin on the acrosome reaction, capacitation was conducted in the presence or absence of bombesin. After incubation, samples of sperm were removed to determine the percentage of sperm which had undergone the acrosome reaction as measured with an acrosome specific monoclonal antibody and FITC fluorescence [see Wolf, D. P. Am. J. Reprod. Immunol. 20:106-113 (1989), which is hereby incorporated by reference].\n[…] bombesin analogs, BIM 26136, BIM 26187, BIM 26189, BIM 26224, BIM 26226, BIM 26244, and BIM 26028, were used to test their effect on the acrosome reaction, either alone or in the presence GRP, in a manner described above."}, "human sperm": {"test_system": "human sperm", "test": "acrosome reaction in human sperm", "format": "cell-based", "conditions": "for stimulation of the spontaneous acrosome reaction: humans", "procedure": "as §1, §3"}, "monkey sperm": {"test_system": "monkey sperm", "test": "acrosome reaction in monkey sperm (acrosome specific monoclonal antibody, FITC fluorescence)", "format": "cell-based, monkeys (rhesus)", "conditions": "for stimulation of the spontaneous acrosome reaction: monkeys (rhesus)", "procedure": "as §1, §2, §3"}}, "note": "Where a SMILES comes first, the peptide text is derived from it. [ ]: non-standard residue; d: D form. dPhe(F5) = N[C@H](Cc1c(F)c(F)c(F)c(F)c1F)C(=O)O", "data": [{"molecule": "CC(=O)[C@H]1CC[C@H]2[C@@H]3CCC4=CC(=O)CC[C@]4(C)[C@H]3CC[C@]12C", "note": "[progesterone]", "values": [{"measurement": "induction of the acrosome reaction", "setting": "sperm [1]", "result": "induce the acrosome reaction"}]}, {"molecule": "Neuromedin B", "values": [{"measurement": "reaction of the new receptor to the peptide", "setting": "new GRP receptor", "result": "reacted only weakly"}]}, {"molecule": "H-D-Phe-Gln-Trp-Ala-Val-Gly-His-Leu-Cpa-NH2 [BIM 26169]", "values": [{"measurement": "% Acrosome Reacted, Analog + GRP", "setting": "sperm [2]", "result": "6.000 ± .408%"}, {"measurement": "% Acrosome Reacted, Analog", "setting": "sperm [2]", "result": "10.000 ± .913%"}]}, {"molecule": "CC(C)C[C@H](NC(=O)[C@H](CC(C)C)NC(=O)[C@H](Cc1c[nH]cn1)NC(=O)CNC(=O)[C@@H](NC(=O)[C@H](C)NC(=O)[C@H](Cc1c[nH]c2ccccc12)NC(=O)[C@H](CCC(N)=O)NC(=O)[C@H](N)Cc1ccccc1)C(C)C)C(N)=O", "note": "[BIM 26137, H-D-Phe-Gln-Trp-Ala-Val-Gly-His-Leu-Leu-NH2]", "values": [{"measurement": "% Acrosome Reacted, Analog + GRP", "setting": "sperm [2]", "result": "7.000 ± .707%"}, {"measurement": "% Acrosome Reacted, Analog", "setting": "sperm [2]", "result": "7.000 ± .707%"}]}, {"molecule": "H-D-Nal-Gln-Trp-Ala-Val-Gly-His-Leu-.psi.(CH2 -NH)-Phe-NH2 [BIM 26136]", "values": [{"measurement": "rank in inducing the acrosome reaction among the analogs tested", "setting": "sperm [2]; Table 1, 50 nM", "result": "most potent"}, {"measurement": "% Acrosome Reacted, Analog + GRP", "setting": "sperm [2]", "result": "10.000 ± 1.225", "unit": "%"}, {"measurement": "% Acrosome Reacted, Analog", "setting": "sperm [2]", "result": "11.000 ± .408%"}]}, {"molecule": "COC(=O)[C@H](CC(C)C)NC(=O)[C@H](Cc1c[nH]cn1)NC(=O)[C@@H](C)NC(=O)[C@@H](NC(=O)[C@H](C)NC(=O)[C@H](Cc1c[nH]c2ccccc12)NC(=O)[C@H](CCC(N)=O)NC(=O)[C@H](N)Cc1c(F)c(F)c(F)c(F)c1F)C(C)C", "note": "[BIM 26226, H-D-F5 -Phe-Gln-Trp-Ala-Val-D-Ala-His-Leu-OCH3] (H-[dPhe(F5)]QWAV[dA]HL-OMe)", "values": [{"measurement": "% Acrosome Reacted, Analog + GRP", "setting": "sperm [2]", "result": "12.000 ± .707%"}, {"measurement": "% Acrosome Reacted, Analog", "setting": "sperm [2]", "result": "9.000 ± 1.780", "unit": "%"}]}, {"molecule": "CCCC[C@H](NC(=O)[C@H](Cc1ccccc1)NC(=O)[C@H](Cc1c[nH]cn1)NC(=O)CNC(=O)[C@@H](NC(=O)[C@H](C)NC(=O)[C@H](Cc1c[nH]c2ccccc12)NC(=O)[C@H](CCC(N)=O)NC(=O)[C@H](N)Cc1ccccc1)C(C)C)C(N)=O", "note": "[BIM 26224, H-D-Phe-Gln-Trp-Ala-Val-Gly-His-Phe-Nle-NH2]", "values": [{"measurement": "% Acrosome Reacted, Analog + GRP", "setting": "sperm [2]", "result": "6.000 ± 1.000", "unit": "%"}, {"measurement": "% Acrosome Reacted, Analog", "setting": "sperm [2]", "result": "9.000 ± 1.581", "unit": "%"}]}, {"molecule": "H-Ala-Pro-Val-Ser-Val-Gly-Gly-Gly-Thr-Val-Leu-Ala-Lys-Met-Tyr-Pro-Arg-Gly-Asn-His-Trp-Ala-Val-Gly-His-Leu-Met-NH2 (H-APVSVGGGTVLAKMYPRGNHWAVGHLM-NH2) [GRP]", "values": [{"measurement": "stimulation of the spontaneous acrosome reaction", "setting": "human sperm", "result": "stimulate"}, {"measurement": "stimulation of the spontaneous acrosome reaction", "setting": "monkey sperm", "result": "stimulate"}, {"measurement": "reaction of the new receptor to the peptide", "setting": "new GRP receptor", "result": "reacted only weakly"}, {"measurement": "concentration at which active in stimulating the acrosome reaction", "setting": "sperm [2]", "result": 1, "unit": "nM"}, {"measurement": "% Acrosome Reacted, GRP without analog (blank control line, GRP column)", "setting": "sperm [2]; GRP final concentration 2 nM, no analog", "result": "18.000 ± 3.629", "unit": "%"}]}, {"molecule": "CSCC[C@H](NC(=O)[C@H](CC(C)C)NC(=O)[C@H](Cc1cnc[nH]1)NC(=O)CNC(=O)[C@@H](NC(=O)[C@H](C)NC(=O)[C@H](Cc1c[nH]c2ccccc12)NC(=O)[C@H](CCC(N)=O)NC(=O)[C@H](CC(N)=O)NC(=O)CNC(=O)[C@H](CC(C)C)NC(=O)[C@H](CCCN=C(N)N)NC(=O)[C@H](CCC(N)=O)NC(=O)[C@@H]1CCC(=O)N1)C(C)C)C(N)=O", "note": "[bombesin, H-pGlu-Gln-Arg-Leu-Gly-Asn-Gln-Trp-Ala-Val-Gly-His-Leu-Met-NH2]", "values": [{"measurement": "increase in the acrosome reaction", "setting": "human sperm; human sperm, concentrations as low as 5 nM bombesin, FIG. 2", "result": 2, "unit": "fold"}, {"measurement": "stimulation of the spontaneous acrosome reaction", "setting": "human sperm", "result": "stimulate"}, {"measurement": "increase in the acrosome reaction", "setting": "monkey sperm; monkey sperm, concentrations as low as 5 nM bombesin, FIG. 2", "result": 2, "unit": "fold"}, {"measurement": "stimulation of the spontaneous acrosome reaction", "setting": "monkey sperm", "result": "stimulate"}]}]}
